Experimental data as given in patent US20120015925A1, “NOVEL BENZOTHIAZEPINE AND BENZOTHIEPINE COMPOUNDS” (ASAHI KASEI PHARMA CORPORATION, priority 2004, published 2012).

How the values were obtained:
ALANINE TRANSPORTER = test: In vitro assay using Cos 7 cells for Na+ dependent amino acid transporter ([3H]-alanine uptake); format: cell-based; settings: [3H]-alanine 8 μM, 37° C., 60 minutes, read-out: IC50 (μM) AGAINST ALANINE TRANSPORTER
Procedure: In the present Test Example, in vitro assays of the compounds using Cos 7 cells for various transporters were performed according to the description in JP-H10-505830 A.
That is, 2.5×10^5 cells/well of Cos 7 cells were seeded in a 24-well plate, and after two days, the cells were washed once with the assay buffer, i.e., Hanks buffer containing 25 mM glucose and 10 mM HEPES (pH 7.4). The assay buffer was then replaced with the assay buffer containing the test compound. [^3H]-alanine (brand name: NET-348, Daiich Pure chemical) or [^3H]-leucine (brand name: NET-460, Daiich Pure chemical) or [^3H]-phenylalanine (brand name: MT903, MORAVEK) or [^3H]-methionine (brand name: MT862, MORAVEK) or [^3H]-lysine (brand name: MT909, MORAVEK) or [^3H]-choline (brand name: TRK593, Amersham Biosciences) at a final concentration of 8 μM was added thereto and incubated at 37° C. for 60 minutes so that they were taken into Cos 7 cells. […] Then the radioactivity was measured using the liquid scintillation counter. The inhibitory rate (%) was calculated from the radioactivity in the control in which no test compound had been used and the radioactivity when the test compound at the certain concentration had been used, and the concentration of the compound which inhibited 50% of the transporter activity was calculated.

rats dosed bile acid = test: Model for hepatic disorder associated with cholestasis, Protocol B (bile acid without partial ligation): AST, ALT, ALP; format: in vivo, rat; settings: Table 13, Protocol B, 0.1 mg/kg oral twice per day for 3.5 days, N=8, mean±standard error
Description: In the present Test Example, a model for the hepatic disorder caused by partial ligation of the bile duct was employed with reference to Kanno's method (Liver, 43, Suppl(1):A126, 2002).
That is, to the SD (IGS) strain male rats at 7 to 10 weeks of age, the partial ligation of the bile duct was given with opening the abdominal cavity under anesthesia with pentobarbital. Before the operation, the blood was collected from femoral vein, in order to obtain the value before the administration. From the day after the operation, 200 mg/kg of bile acid and the test compound were orally administered forcibly twice per day for 3.5 days (Protocol A). Without giving the partial ligation of the bile duct, 200 mg/kg of bile acid and the test compound were also orally administered forcibly twice per day for 3.5 days (Protocol B). In both cases, the test compound was dissolved or suspended in distilled water or an aqueous solution of 1% HCO 60 (Nippon Chemicals). To the control group, saline was administered. As comparative examples, 25 mg/kg of cholestyramine (supplied from Sigma) or 50 mg/kg of ursodeoxycholic acid (supplied from Mitsubishi Pharma) was administered. For considering the effect of the operation, sham operation (sham group) was performed in some cases. The blood was collected from the abdominal aorta 6 hours after the drug administration on the final day of the experiment. AST (GOT), ALT (GPT) and ALP in the blood were measured using measurement kits (GOT II-HA Test Wako, GPT II-HA Test Wako and Alkaline Phosphor HA Test Wako, all were supplied from Wako Pure Chemical Industries) and using an automatic analyzer (Nitech ANALAYZER SUPER Z818).

rat IBAT = molecular target: T1, rat IBAT (Rattus norvegicus, UniProt Q62633); test: In vitro assay using Cos 7 cells, transiently expressed rat IBAT; format: cell-based; settings: [3H]-taurocholate 8 μM uptake, 37° C., 60 minutes
T1 sequence (Q62633 1-348): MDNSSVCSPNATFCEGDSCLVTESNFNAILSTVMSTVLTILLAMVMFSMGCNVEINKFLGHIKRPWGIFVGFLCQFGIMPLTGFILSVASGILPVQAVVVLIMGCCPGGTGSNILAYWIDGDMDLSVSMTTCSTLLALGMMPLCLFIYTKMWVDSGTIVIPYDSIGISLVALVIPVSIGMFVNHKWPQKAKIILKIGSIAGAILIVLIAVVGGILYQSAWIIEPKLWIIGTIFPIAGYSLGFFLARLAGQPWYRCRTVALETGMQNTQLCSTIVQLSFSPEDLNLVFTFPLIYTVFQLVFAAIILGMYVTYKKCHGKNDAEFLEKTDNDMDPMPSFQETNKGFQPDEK
Procedure: In the present Test Example, an in vitro assay of compounds using Cos 7 cells as to inhibitory activity on transiently expressed human IBAT or rat IBAT transporter was performed according to the method described in Am. J. Physiol., 274, G157-169.
That is, […] cells/well of Cos 7 cells were seeded in a 24-well plate, and after one day, the cells were transfected with 0.3 μg/well of cDNA of human IBAT or rat IBAT using FuGENE6 (supplied from Roche). After culturing for one day after the transfection, the cells were washed once with the assay buffer, i.e., Hanks buffer containing 25 mM glucose and 10 mM HEPES (pH 7.4). The assay buffer was then replaced with the assay buffer containing the test compound. [^3H]-Taurocholate at a final concentration of 8 μM was added thereto and incubated at 37° C. for 60 minutes so that [^3H]-taurocholate was taken into Cos 7 cells by the action of human IBAT or rat IBAT. The cells were washed twice with the assay buffer containing 1 mM taurocholate, and subsequently lysed with 0.2 M NaOH to stop the reaction. The cell lysate was added to 4 mL of liquid scintillation cocktail, which was then thoroughly vortexed. Then the radioactivity was measured using the liquid scintillation counter.

Row | Structure (SMILES) | IC50 (ALANINE TRANSPORTER) | ALT (rats dosed bile acid; control group 82 ± 17) | AST (rats dosed bile acid; control group 157 ± 35) | ALP (rats dosed bile acid; control group 593 ± 77) | IC50 (rat IBAT)
1 | CCCCC1(CCCC)CS(=O)(=O)c2ccc(N(C)C)cc2C(c2cccc(NC(=S)CCCCC[N+]34CCC(CC3)CC4)c2)N1.[Br-] (centres unmarked) [EXAMPLE 1, 1-{5-[3-(3,3-dibutyl-7-dimethylamino-1,1-dioxo-2,3,4,5-tetrahydro-1,4-benzothiazepine-5-yl)phenylthiocarbamoyl]pentyl}-1-azoniabicyclo[2.2.2]octane bromide] | 33 µM | 53 ± 6 IU/L | 100 ± 2 IU/L | 453 ± 50 IU/L | 
2 | CCCCC1(CCCC)CS(=O)(=O)c2ccc(N(C)C)cc2C(c2cccc(NC(=S)Nc3ccc(C[N+](C)(C)Cc4ccccc4)cc3)c2)N1.[Br-] (centres unmarked) [EXAMPLE 3440] |  |  |  |  | 0.01 µM
